The record followed here is US4431804A, “Thiazolylacetamido compounds” (Hoffmann-La Roche Inc., priority 1981, dated 1984).

Where a name gives a salt, the structure may show the parent alone. Bounds are passed on as bounds.

A short description of one series: Toxicity (LD50). The note with it: in vivo. An excerpt: Toxicity of the trisodium salt of (6R,7R)-7-[(Z)-2-(2-amino-4-[…])-2-[(1-carboxy-1-methylethoxy)imino]acetamido]-3-[[(2,5-dihydro-6-hydroxy-2-methyl-5-oxo-as-triazin-3-yl)thio]methyl]-8-oxo-5-thia-1-azabicyclo[4.2.0]oct-2-ene-2-carboxylic acid: […]
The test system of the next series is Pseudomonas aeruginosa. The series can be described thus: in vitro activity against 15 strains of Pseudomonas aeruginosa (minimum inhibitory concentration). In kind it is cell-based. The text has this: Results (as MIC=minimum inhibitory concentration in μg/ml): […]

As for `Cn1nc(O)c(=O)nc1SCC1=C(C(=O)O)N2C(=O)[C@@H](NC(=O)/C(=N\OC(C)(C)C(=O)O)c3csc(N)n3)[C@H]2SC1` [Example 1, trisodium salt of (6R,7R)-7-[(Z)-2-(2-amino-4-thiazolyl)-2-[(1-carboxy-1-methylethoxy)imino]acetamido]-3-[[(2,5-dihydro-6-hydroxy-2-methyl-5-oxo-as-triazin-3-yl)thio]methyl]-8-oxo-5-thia-1-azabicyclo[4.2.0]oct-2-ene-2-carboxylic acid], the figures for the LD50 in the series “Toxicity (LD50)” (iv), in the series “Toxicity (LD50)” (po) and in the series “Toxicity (LD50)” (sc) were more than 1000 mg/kg, more than 4000 mg/kg and more than 4000 mg/kg, respectively. The minimum inhibitory concentration (MIC) (as a rule, the least concentration at which growth counts as inhibited) amounted to 6.3 µg/mL in the series with Pseudomonas aeruginosa (P. aeruginosa strain 1, in vitro); 1.6 µg/mL against Pseudomonas aeruginosa (P. aeruginosa strain 2, in vitro); 1.6 µg/mL against Pseudomonas aeruginosa (P. aeruginosa strain 3, in vitro); 1.6 µg/mL against Pseudomonas aeruginosa (P. aeruginosa strain 4, in vitro); 1.6 µg/mL with Pseudomonas aeruginosa (P. aeruginosa strain 5, in vitro); 1.6 µg/mL with Pseudomonas aeruginosa (P. aeruginosa strain 6, in vitro). Also, the MIC against Pseudomonas aeruginosa (P. aeruginosa strain 7, in vitro) amounted to 1.6 µg/mL; with Pseudomonas aeruginosa (P. aeruginosa strain 8, in vitro) it was 25 µg/mL; in the series on Pseudomonas aeruginosa (P. aeruginosa strain 9, in vitro), 3.1 µg/mL; against Pseudomonas aeruginosa (P. aeruginosa strain 10, in vitro) it was 1.6 µg/mL; in the series with Pseudomonas aeruginosa (P. aeruginosa strain 11, in vitro), 0.8 µg/mL; against Pseudomonas aeruginosa (P. aeruginosa strain 12, in vitro) it was 1.6 µg/mL. The MIC against Pseudomonas aeruginosa (P. aeruginosa strain 13, in vitro) turned out to be 1.6 µg/mL; with Pseudomonas aeruginosa (P. aeruginosa strain 14, in vitro), 1.6 µg/mL; in the series with Pseudomonas aeruginosa (P. aeruginosa strain 15, in vitro), 1.6 µg/mL.
